From patent EP4817613A1, “COMPOSITION FOR ERADICATING HELICOBACTER PYLORI COMPRISING ZASTAPRAZAN OR PHARMACEUTICALLY ACCEPTABLE SALT THEREOF” (Jeil Pharmaceutical Co., Ltd., priority 2023, dated 2025)

Tests used:
[1] = system: patients with erosive gastroesophageal reflux disease; experiment: Phase 2 clinical trial, randomized, double-blind, active-controlled: healing of mucosal breaks and symptoms; format: in vivo, human; details: for overall healing rate, number of subjects whose mucosal breaks were completely healed / overall healing rate, proportion of subjects whose mucosal breaks were completely healed: H. pylori-positive and -negative groups together
Protocol: H. pylori testing was performed by 13C-urea breath test (13C-UBT), gastroscopy (Campylobacter-like organism test, CLO), or tissue biopsy to confirm H. pylori positivity/negativity. The testing was performed at the screening visit (Visit 1) or the randomization visit (Visit 2), and results from the same institution within 29 days prior to the randomization visit (Visit 2) could be substituted. This clinical trial was a randomized, double-blind, active-controlled, multicenter, phase 2 clinical trial targeting patients with erosive gastroesophageal reflux disease. After the subjects gave written consent to participate in the clinical trial, a screening test was conducted. When the subjects were taking drugs that could affect the gastric mucosa at the time of screening, an upper gastrointestinal endoscopy was performed after a 2-week drug-free period (a 4-week drug-free period for potassium-competitive acid blockers (P-CABs) or proton pump inhibitors (PPIs)). […] At this time, the subjects were stratified by grade (A, B, C, D) according to the LA classification system classified by upper gastrointestinal endoscopy. Randomly assigned subjects took the clinical trial drug once a day according to the assigned administration group for four weeks. After four weeks of administration of the clinical trial drug, the subjects visited the clinical trial institution to undergo an upper gastrointestinal endoscopy to assess whether they were healed. Healed subjects underwent a Safety Follow-Up (F/U) two weeks later, and unhealed subjects were administered the clinical trial drug for additional four weeks (a total of 8 weeks of administration) and visited the clinical trial institution to undergo an upper gastrointestinal endoscopy. […] Days of achieving complete remission (CR, disappearance of heartburn and acid reflux for seven days) after the administration of the clinical trial drug • D. Proportion of symptom-free days (heartburn, acid reflux, heartburn/acid reflux) for 4 and 8 weeks after the administration of the clinical trial drug (daytime, nighttime, daytime/nighttime) • ③ Changes in frequency and severity of major symptoms at week 4 and week 8 of the clinical trial drug administration compared to the gastroesophageal reflux disease questionnaire (RDQ) baseline • ④ Changes in total score at week 4 and week 8 of the clinical trial drug administration compared to the GERD Health-Related Quality of Life (GERD-HRQL) baseline The proportion of subjects whose erosions recovered to normal mucosa from the first administration of the clinical trial drug up to week 8 and the two-sided 95% confidence intervals were presented by administration group. […] Days of achieving CR (disappearance of heartburn and acid reflux for seven days) after the administration of the clinical trial drug: When the symptom score is 0 for seven consecutive days after the first administration of the clinical trial drug, it was defined as CR (disappearance of heartburn and acid reflux for seven days), and the event was based on the first CR. When there was no CR, the case was considered as censoring.

[2] = system: patients with erosive gastroesophageal reflux disease; experiment: Phase 3 clinical trial: healing rate of mucosal breaks in H. pylori-positive subjects; format: in vivo, human
Protocol: H. pylori testing was performed by 13C-UBT, gastroscopy (Campylobacter-like organism test, CLO), or tissue biopsy to confirm H. pylori positivity/negativity. The testing was performed at the screening visit (Visit 1) or the randomization visit (Visit 2), and results from the same institution within 29 days prior to the randomization visit (Visit 2) could be substituted. Those who voluntarily agreed to participate in this clinical trial underwent a screening test through a screening visit, and only eligible subjects were allowed to participate in the clinical trial based on the inclusion/exclusion criteria. Eligible subjects were randomly assigned to the test group or control group and received the clinical trial drug according to the assigned group at the baseline visit (V2). […] [Table 10] The cumulative healing rate of mucosal breaks according to the presence or absence of H. pylori infection refers to the proportion of subjects whose mucosal breaks were healed by 4 weeks after the administration of the clinical trial drug on endoscopic examination. The frequency and percentage of healing rates of mucosal breaks at week 4 after the administration of the clinical trial drug were presented by administration group according to the presence or absence of H. pylori infection. The differences between the administration groups (test group-control group) were analyzed using the Cochran-Mantel-Haenszel method corrected with the baseline LA classification method as a stratification factor, and the 95% confidence intervals for the differences were presented.

[3] = system: Helicobacter pylori SS1 (mouse colonizing strain); experiment: Antibiotic susceptibility testing by microdilution (MIC and MBC), CLSI guideline; format: cell-based; details: lowest concentration with no growth after spotting on antibiotic-free agar, Table 4 prints no unit (method concentrations in µg/mL)
Protocol: Helicobacter pylori SS1 (mouse colonizing strain): A strain known as Sydney strain. The strain is CagA-positive and VacA-positive and has been confirmed to infect and colonize in C57BL/6 mice. The strain is used in animal testing. The medium was prepared using Müller-Hinton broth (MH, Difco Inc., Sparks, MD, USA) [w/7% differentiation medium (Sigma CO., LTD., St. Louis, USA), 0.4% isovitalex (BBL Inc., Sparks, MD, USA)]. An antibiotic susceptibility testing was performed using the microdilution method according to the CLSI guideline. Two-fold serial dilution was performed in 12 steps in a 48-well plate with the highest concentration of 128 µg/mL for amocixillin and clarithromycin and 256 µg/mL for omeprazole. The bacteria were inoculated into wells containing only medium without antibiotics to prepare the positive control group, and the wells containing only medium without antibiotics or inoculated bacteria were used as the negative control group. The concentration range of the test substances, zastaprazan (JP-1366) and fexuprazan, was determined through preliminary experiments. […] The lowest concentration at which no bacterial growth was observed was determined as the MIC. […] The lowest concentration at which no bacteria growth occurred was determined as the MBC. […] All tests were performed in duplicate, and the results were determined by conducting the experiments in triplicate.

Row | SMILES | Healing rate, (%) ([1]; H. pylori-negative group, week 8, 40 mg once a day, N=41) | overall healing rate, number of subjects whose mucosal breaks were completely healed ([1]; week 4, 40 mg once a day, of 49 people) [people] | Number of healed subjects, (%) ([2]; full analysis set (FAS), week 4, 40 mg once a day, 25 subjects) | Healing rate, (%) ([1]; H. pylori-negative group, week 4, 10 mg once a day, N=41) | Healing rate, (%) ([1]; H. pylori-negative group, week 4, 20 mg once a day, N=42) | Healing rate, (%) ([1]; H. pylori-negative group, week 8, 10 mg once a day, N=41) | Healing rate, (%) ([1]; H. pylori-negative group, week 8, 20 mg once a day, N=42) | overall healing rate, proportion of subjects whose mucosal breaks were completely healed ([1]; week 4, 10 mg once a day, 48 people) [%] | overall healing rate, number of subjects whose mucosal breaks were completely healed ([1]; week 4, 10 mg once a day, of 48 people) [people] | overall healing rate, proportion of subjects whose mucosal breaks were completely healed ([1]; week 4, 20 mg once a day, 47 people) [%] | overall healing rate, number of subjects whose mucosal breaks were completely healed ([1]; week 4, 20 mg once a day, of 47 people) [people] | Healing rate, (%) ([1]; H. pylori-positive group, week 4, 10 mg once a day, N=7) | Healing rate, (%) ([1]; H. pylori-positive group, week 4, 20 mg once a day, N=5, citrate salt) | Healing rate, (%) ([1]; H. pylori-positive group, week 8, 10 mg once a day, N=7) | Healing rate, (%) ([1]; H. pylori-positive group, week 8, 20 mg once a day, N=5, citrate salt) | MBC [3] | Number of healed subjects, (%) ([2]; full analysis set (FAS), week 4, 20 mg once a day, 28 subjects) | Number of healed subjects, (%) ([2]; per protocol set (PPS), week 4, 20 mg once a day, 26 subjects)
1 | COc1ccc2nc([S@@+]([O-])Cc3ncc(C)c(OC)c3C)[nH]c2c1 [Esomeprazole, Esomeprazole magnesium trihydrate, reference compound] | 97.56 | 44 | 80.00 | – | – | – | – | – | – | – | – | – | – | – | – | – | – | –
2 | Cc1cccc(C)c1CNc1cc(C(=O)N2CCC2)cn2c(C)c(C)nc12.O=C(O)CC(O)(CC(=O)O)C(=O)O [JP-1366, azetidin-1-yl{8-[(2,6-dimethylbenzyl)amino]-2,3-dimethylimidazo[1,2-a]pyridin-6-yl}methanone citrate salt] | – | – | – | 95.12 | 90.48 | 97.56 | 97.62 | 93.75 | 45 | 91.49 | 43 | 85.71 | 100 | 100.00 | 100 | 16~323 | 96.43 | 100.00
